Test results reported in patent publication US6706664B1, “Benzoxazole compounds, process for the preparation thereof and herbicides” (UBE Industries, Ltd., priority 1999, dated 2004).

Tests used:
Design in all cases: key: 0: normal development; 1: Less damaged; 2: Slightly damaged; 3: Moderately damaged; 4: Severely damaged; 5: All killed
[1] = system: corn; assay: Soil treatment test for upland field; type: in vivo; details: 500 g/ha, glass house 25° C., 3 weeks
Procedure, shortened: (§1)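 Compounds were formulated as wettable powders and applied pre-emergence to the surface of freshly sown alluvial soil at 500 g/ha. After three weeks in a glass house averaging 25° C, damage was rated from 0 (normal development) to 5 (all killed).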

[2] = system: cotton; assay: Soil treatment test for upland field; type: in vivo; details: 500 g/ha, glass house 25° C., 3 weeks
Procedure, shortened: as §1

[3] = system: solgum; assay: Soil treatment test for upland field; type: in vivo; details: 500 g/ha, glass house 25° C., 3 weeks
Procedure, shortened: as §1

[4] = system: soybean; assay: Soil treatment test for upland field; type: in vivo; details: 500 g/ha, glass house 25° C., 3 weeks
Procedure, shortened: as §1

[5] = system: sugar beat; assay: Soil treatment test for upland field; type: in vivo; details: 500 g/ha, glass house 25° C., 3 weeks
Procedure, shortened: as §1

[6] = system: wheat; assay: Soil treatment test for upland field; type: in vivo; details: 500 g/ha, glass house 25° C., 3 weeks
Procedure, shortened: as §1

[7] = system: Large crabgrass; assay: Soil treatment test for upland field; type: in vivo, Digitaria adscendens; details: 500 g/ha, glass house 25° C., 3 weeks
Procedure, shortened: as §1

[8] = system: green foxtail; assay: Soil treatment test for upland field; type: in vivo, Setaria viridis; details: 500 g/ha, glass house 25° C., 3 weeks
Procedure, shortened: as §1

[9] = system: blackgrass; assay: Soil treatment test for upland field; type: in vivo, Alopecurus aegualis; details: 500 g/ha, glass house 25° C., 3 weeks
Procedure, shortened: as §1

[10] = system: annual bluegrass; assay: Soil treatment test for upland field; type: in vivo, Poa annua; details: 500 g/ha, glass house 25° C., 3 weeks
Procedure, shortened: as §1

[11] = system: common lambsquartes; assay: Soil treatment test for upland field; type: in vivo, Chenopodium album; details: 500 g/ha, glass house 25° C., 3 weeks
Procedure, shortened: as §1

[12] = system: livid amaranth; assay: Soil treatment test for upland field; type: in vivo, Amaranthus lividus; details: 500 g/ha, glass house 25° C., 3 weeks
Procedure, shortened: as §1

[13] = system: velvetleaf; assay: Soil treatment test for upland field; type: in vivo, Abutilon theophrasti; details: 500 g/ha, glass house 25° C., 3 weeks
Procedure, shortened: as §1

[14] = system: corn; assay: Foliar spread test for upland field; type: in vivo; details: foliar spray 500 ppm, 3 weeks, rank vs non-treated
Description: (§2) (0: normal development, 1: Less damaged, 2: Slightly damaged, 3: Moderately damaged, 4: Severely damaged, 5: All killed).
(§3) Wagner pots, each having an area of 1/5000 are, were packed with volcanic ash soil and then each seed of corn, soybean, cotton, wheat, solgum, sugar beat, Large crabgrass, barnyardgrass, green foxtail, blackgrass, annual bluegrass, common lambsquartes, livid amaranth, velvetleaf and morning glory was planted, covered with soil and grown in a glass house at an average temperature of […] for about 2 weeks.
(§4) Each wettable powder of the desired compounds (I) shown in Table 1 prepared in accordance with Example 2 was diluted to 500 ppm with water containing a surfactant (0.5%) and then uniformly sprayed on the above respective plants.
(§5) After these plants were controlled in a glass house at an average temperature of 25° C. for 3 weeks, the herbicidal effects thereof were investigated.
(§6) The herbicidal effects were evaluated according to the evaluation method described in the above (1).

[15] = system: solgum; assay: Foliar spread test for upland field; type: in vivo; details: foliar spray 500 ppm, 3 weeks, rank vs non-treated
Description: as §2, §3, §4, §5, §6

[16] = system: soybean; assay: Foliar spread test for upland field; type: in vivo; details: foliar spray 500 ppm, 3 weeks, rank vs non-treated
Description: as §2, §3, §4, §5, §6

[17] = system: sugar beat; assay: Foliar spread test for upland field; type: in vivo; details: foliar spray 500 ppm, 3 weeks, rank vs non-treated
Description: as §2, §3, §4, §5, §6

[18] = system: wheat; assay: Foliar spread test for upland field; type: in vivo; details: foliar spray 500 ppm, 3 weeks, rank vs non-treated
Description: as §2, §3, §4, §5, §6

[19] = system: green foxtail; assay: Foliar spread test for upland field; type: in vivo, Setaria viridis; details: foliar spray 500 ppm, 3 weeks, rank vs non-treated
Description: as §2, §3, §4, §5, §6

[20] = system: common lambsquartes; assay: Foliar spread test for upland field; type: in vivo, Chenopodium album; details: foliar spray 500 ppm, 3 weeks, rank vs non-treated
Description: as §2, §3, §4, §5, §6

[21] = system: livid amaranth; assay: Foliar spread test for upland field; type: in vivo, Amaranthus lividus; details: foliar spray 500 ppm, 3 weeks, rank vs non-treated
Description: as §2, §3, §4, §5, §6

[22] = system: velvetleaf; assay: Foliar spread test for upland field; type: in vivo, Abutilon theophrasti; details: foliar spray 500 ppm, 3 weeks, rank vs non-treated
Description: as §2, §3, §4, §5, §6

[23] = system: barnyardgrass; assay: Soil treatment test for upland field; type: in vivo, Echinochloa crusgalli; details: 500 g/ha, glass house 25° C., 3 weeks
Procedure, shortened: as §1

[24] = system: morning glory; assay: Foliar spread test for upland field; type: in vivo, Ipomoea spps.; details: foliar spray 500 ppm, 3 weeks, rank vs non-treated
Description: as §2, §3, §4, §5, §6

[25] = system: young rice plant; assay: Herbicidal test for paddy field; type: in vivo; details: paddy field pot, 500 g/ha dropwise at 1.5 leaf stage of barnyardgrass, 3 weeks, rank vs non-treated
Description: (§7) Wagner pots, each having an area of 1/5000 are, were packed with Ube soil (alluvial soil) and planted with seeds or tubers of young rice plant, barnyardgrass, bulrush, flat sedge and monochoria. Then, the pots were filled with water to a depth of 3 cm.
(§8) Each wettable powder of the desired compounds (I) shown in Table 1 prepared in accordance with Example 2 was diluted with water containing a surfactant (0.05%) and subjected to dropwise addition treatment by using pipet so that an effective concentration of the compound (I) in each herbicide became 500 g/ha at 1.5 leaf stage of barnyardgrass.
(§9) These plants were controlled in a glass house at an average temperature of 25° C. for 3 weeks, and then herbicidal effects thereof were investigated.
(§10) The herbicidal effects are evaluated according to the following 6 ranks as compared with non-treated district.
as §2

[26] = system: bulrush; assay: Herbicidal test for paddy field; type: in vivo, Scrips juncoides; details: paddy field pot, 500 g/ha dropwise at 1.5 leaf stage of barnyardgrass, 3 weeks, rank vs non-treated
Description: as §7, §8, §9, §10, §2

[27] = system: monochoria; assay: Herbicidal test for paddy field; type: in vivo, Monochoria vaginalis; details: paddy field pot, 500 g/ha dropwise at 1.5 leaf stage of barnyardgrass, 3 weeks, rank vs non-treated
Description: as §7, §8, §9, §10, §2

[28] = system: cotton; assay: Foliar spread test for upland field; type: in vivo; details: foliar spray 500 ppm, 3 weeks, rank vs non-treated
Description: as §2, §3, §4, §5, §6

[29] = system: barnyardgrass; assay: Herbicidal test for paddy field; type: in vivo, Echinochloa crusgalli; details: paddy field pot, 500 g/ha dropwise at 1.5 leaf stage of barnyardgrass, 3 weeks, rank vs non-treated
Description: as §7, §8, §9, §10, §2

[30] = system: Large crabgrass; assay: Foliar spread test for upland field; type: in vivo, Digitaria adscendens; details: foliar spray 500 ppm, 3 weeks, rank vs non-treated
Description: as §2, §3, §4, §5, §6

[31] = system: blackgrass; assay: Foliar spread test for upland field; type: in vivo, Alopecurus aegualis; details: foliar spray 500 ppm, 3 weeks, rank vs non-treated
Description: as §2, §3, §4, §5, §6

[32] = system: annual bluegrass; assay: Foliar spread test for upland field; type: in vivo, Poa annua; details: foliar spray 500 ppm, 3 weeks, rank vs non-treated
Description: as §2, §3, §4, §5, §6

## CCCC(Oc1ccc(F)c(C(F)(F)F)c1)c1nc2cc(C#N)c(C#N)cc2o1 (stereo not drawn) [Compound 318]
[1]
  Effects Corn: 0
[2]
  Effects Cotton: 0
[3]
  Effects Solgum: 0
[4]
  Effects Soybean: 0
[5]
  Effects Sugar beat: 5
[6]
  Effects Wheat: 0
[7]
  Effects Large crabgrass: 2
[8]
  Effects Green foxtail: 4
[9]
  Effects Blackgrass: 2
[10]
  Effects Annual bluegrass: 4
[11]
  Effects Common lambsquarters: 5
[12]
  Effects Livid amaranth: 5
[13]
  Effects Velvetleaf: 5
[14]
  Effects Corn: 1
[15]
  Effects Solgum: 1
[16]
  Effects Soybean: 2
[17]
  Effects Sugar beat: 5
[18]
  Effects Wheat: 1
[19]
  Effects Green foxtail: 5
[20]
  Effects Common lambsquarters: 3
[21]
  Effects Livid amaranth: 5
[22]
  Effects Velvetleaf: 2

## CCCC(Oc1ccc(F)c(C(F)(F)F)c1)c1nc2cc(S(C)(=O)=O)c(C)cc2o1 (stereo not drawn) [Compound 488]
[1]
  Effects Corn: 0
[2]
  Effects Cotton: 1
[3]
  Effects Solgum: 0
[4]
  Effects Soybean: 0
[5]
  Effects Sugar beat: 5
[6]
  Effects Wheat: 0
[7]
  Effects Large crabgrass: 5
[23]
  Effects Barnyardgrass: 2
[8]
  Effects Green foxtail: 5
[10]
  Effects Annual bluegrass: 5
[11]
  Effects Common lambsquarters: 4
[12]
  Effects Livid amaranth: 5
[13]
  Effects Velvetleaf: 5
[14]
  Effects Corn: 1
[15]
  Effects Solgum: 1
[16]
  Effects Soybean: 2
[17]
  Effects Sugar beat: 5
[18]
  Effects Wheat: 1
[20]
  Effects Common lambsquarters: 3
[21]
  Effects Livid amaranth: 5
[22]
  Effects Velvetleaf: 3
[24]
  Effects Morning glory: 2

## CCC(Oc1cccc(C#N)c1)c1nc2cc(S(C)(=O)=O)c(C)cc2o1 (stereo not drawn) [Compound 491]
[25]
  Effect Young rice plant: 0
[26]
  Effect Bulrush: 3
[27]
  Effect Monochoria: 5
[14]
  Effects Corn: 1
[28]
  Effects Cotton: 2
[15]
  Effects Solgum: 1
[17]
  Effects Sugar beat: 4
[18]
  Effects Wheat: 1
[19]
  Effects Green foxtail: 2
[20]
  Effects Common lambsquarters: 5
[21]
  Effects Livid amaranth: 4
[22]
  Effects Velvetleaf: 3
[24]
  Effects Morning glory: 3

## CCC(Oc1ccc(F)c(C(F)(F)F)c1)c1nc2cc(F)c(Cl)cc2o1 (stereo not drawn) [Compound 493]
[29]
  Effect Barnyardgrass: 5
[27]
  Effect Monochoria: 5
[1]
  Effects Corn: 2
[2]
  Effects Cotton: 1
[3]
  Effects Solgum: 2
[4]
  Effects Soybean: 2
[5]
  Effects Sugar beat: 5
[6]
  Effects Wheat: 2
[7]
  Effects Large crabgrass: 5
[23]
  Effects Barnyardgrass: 4
[8]
  Effects Green foxtail: 5
[9]
  Effects Blackgrass: 4
[10]
  Effects Annual bluegrass: 5
[11]
  Effects Common lambsquarters: 4
[12]
  Effects Livid amaranth: 5
[13]
  Effects Velvetleaf: 5
[14]
  Effects Corn: 2
[28]
  Effects Cotton: 2
[15]
  Effects Solgum: 1
[17]
  Effects Sugar beat: 5
[18]
  Effects Wheat: 1
[30]
  Effects Large crabgrass: 2
[19]
  Effects Green foxtail: 5
[20]
  Effects Common lambsquarters: 5
[21]
  Effects Livid amaranth: 5
[22]
  Effects Velvetleaf: 2

## CCC(Oc1cccc(C(F)(F)F)c1)c1nc2cc(F)c(Cl)cc2o1 (stereo not drawn) [Compound 496]
[1]
  Effects Corn: 0
[2]
  Effects Cotton: 1
[3]
  Effects Solgum: 1
[4]
  Effects Soybean: 0
[5]
  Effects Sugar beat: 5
[6]
  Effects Wheat: 1
[7]
  Effects Large crabgrass: 5
[23]
  Effects Barnyardgrass: 3
[8]
  Effects Green foxtail: 5
[9]
  Effects Blackgrass: 5
[10]
  Effects Annual bluegrass: 5
[11]
  Effects Common lambsquarters: 5
[12]
  Effects Livid amaranth: 5
[13]
  Effects Velvetleaf: 5
[14]
  Effects Corn: 2
[15]
  Effects Solgum: 2
[17]
  Effects Sugar beat: 5
[18]
  Effects Wheat: 2
[30]
  Effects Large crabgrass: 3
[19]
  Effects Green foxtail: 4
[31]
  Effects Blackgrass: 3
[32]
  Effects Annual bluegrass: 2
[20]
  Effects Common lambsquarters: 5
[21]
  Effects Livid amaranth: 5
[22]
  Effects Velvetleaf: 3
